Measurements from patent US11312721B2 (priority 2015, dated 2022).

Molecular target: T1, α5β3γ2 GABAA receptors (Ltk cells) (Homo sapiens, UniProt P18507+P31644)
T1 construct: membranes
Experiment: Binding activity on GABAAR: inhibition of [3H]Ro15-1788 binding
Description: Tissue culture and Membrane Preparation: The binding was performed on Ltk cells stably expressing GABAA receptors: α1β1γ2, α2β3γ2, α3β3γ2 and α5β3γ2 (provided by Merck Co., NJ, USA). Cells were seeded in 100 mm culture plates in DMEM/F12 medium containing 10% serum and antibiotics in 5% CO2 and allowed to grow for 1-2 days. GABAAR expression was then induced by dexamethasone as follows: 0.5 μM for 1 day for α5 containing and 2 μM for 3 days for α1, α2 and α3 containing GABAARs. After induction, cells were collected by scraping into Dulbecco's Phosphate buffered saline (DPBS, pH 7.4, Invitrogen, Carlsbad, Calif., USA) and centrifuged at 150×g for 10 min. The pellet was washed twice by re-suspension and centrifugation. The cell pellets from at least 5 different preps were combined, suspended in the binding assay buffer (50 mM KH2PO4; 1 mM EDTA; 0.2 M KCl, pH 7.4) and membranes prepared by sonication (3-5 times, 30 sec) using Branson Sonifier 150 (G. Heinmann, Germany). Protein content was determined using BCA assay (Bio-Rad Labs, Reinach, Switzerland) with Bovine Serum Albumin (Sigma Aldrich, St. Louis, Mo., USA) as the standard. Aliquots were prepared and stored at −20° C. for further use in binding assays.
Ligand Binding: Saturation binding curves were obtained by incubating membranes with increasing concentrations (0.01-8 nM) of [^3H]Ro15-1788 (Flumazepil, 75-85 Ci/mmol, PerkinElmer, MA, USA), with nonspecific binding measured in the presence of 10 μM diazepam.
All binding assays were performed for 1 h at 4° C. in assay buffer. The total assay volume was 0.5 ml containing 0.2 mg/ml protein for α5 and 0.4 mg/ml for α1, α2, and α3 containing GABAAR membranes. Incubations were terminated by filtration through GF/B filters using a 24-Cell Harvestor (Brandel, Gaithersburg, Md., USA) followed by 3 washes with ice-cold assay buffer. Filters were transferred to scintillation vials, 5 ml scintillation liquid added, vortex-mixed and kept in dark. Next day, radioactivity was obtained using a scintillation counter (Beckman Coulter, Brea, Calif., USA). All assays were performed in triplicate.
Data Analyses: Saturation and inhibition curves were obtained using GraphPad Prism software (GraphPad Software, Inc., CA, USA).

T1 sequence (P31644 32-462): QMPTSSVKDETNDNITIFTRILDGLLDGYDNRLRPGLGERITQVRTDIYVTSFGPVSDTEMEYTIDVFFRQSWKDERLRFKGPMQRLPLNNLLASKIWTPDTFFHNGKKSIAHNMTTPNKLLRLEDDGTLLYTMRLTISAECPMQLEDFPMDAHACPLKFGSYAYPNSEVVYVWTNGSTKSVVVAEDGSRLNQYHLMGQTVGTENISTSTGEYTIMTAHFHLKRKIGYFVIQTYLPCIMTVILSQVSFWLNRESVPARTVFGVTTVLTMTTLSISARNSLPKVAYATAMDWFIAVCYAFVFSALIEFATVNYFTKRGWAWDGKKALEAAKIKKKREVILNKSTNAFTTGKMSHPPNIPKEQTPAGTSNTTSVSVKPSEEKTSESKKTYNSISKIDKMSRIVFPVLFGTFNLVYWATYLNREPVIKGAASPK
T1 sequence (P28472 26-473 partner): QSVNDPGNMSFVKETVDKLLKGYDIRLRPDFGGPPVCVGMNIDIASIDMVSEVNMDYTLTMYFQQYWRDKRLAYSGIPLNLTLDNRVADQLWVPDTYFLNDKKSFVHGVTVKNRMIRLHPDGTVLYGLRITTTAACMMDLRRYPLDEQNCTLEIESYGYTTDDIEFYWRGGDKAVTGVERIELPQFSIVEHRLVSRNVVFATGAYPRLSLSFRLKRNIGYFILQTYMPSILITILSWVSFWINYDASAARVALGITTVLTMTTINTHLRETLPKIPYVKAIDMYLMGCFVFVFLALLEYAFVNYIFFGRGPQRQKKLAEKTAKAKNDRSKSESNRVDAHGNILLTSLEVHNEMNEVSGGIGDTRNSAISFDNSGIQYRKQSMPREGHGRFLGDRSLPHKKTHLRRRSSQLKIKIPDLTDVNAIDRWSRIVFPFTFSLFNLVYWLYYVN
T1 sequence (P18507 40-475): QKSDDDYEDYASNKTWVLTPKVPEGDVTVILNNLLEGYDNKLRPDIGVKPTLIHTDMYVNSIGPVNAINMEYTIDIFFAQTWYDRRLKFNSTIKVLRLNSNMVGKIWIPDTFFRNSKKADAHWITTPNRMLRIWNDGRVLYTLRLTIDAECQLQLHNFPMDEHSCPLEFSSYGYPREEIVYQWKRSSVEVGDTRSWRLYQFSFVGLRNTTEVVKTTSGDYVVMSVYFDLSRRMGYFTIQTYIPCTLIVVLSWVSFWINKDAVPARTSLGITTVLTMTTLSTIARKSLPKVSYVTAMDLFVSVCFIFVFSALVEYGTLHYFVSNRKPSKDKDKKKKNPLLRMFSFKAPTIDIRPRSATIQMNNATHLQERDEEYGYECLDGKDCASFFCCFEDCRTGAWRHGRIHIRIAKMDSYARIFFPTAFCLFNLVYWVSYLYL

Structure (SMILES) | Ki [nM]
COCc1nnc2n1Cc1c(C3=NC[C@H](C)O3)ncn1-c1ccc(Cl)cc1-2 [Compound 295] | < 99
COc1ccc2c(c1)-n1nncc1Cc1c(-c3nc(C)no3)ncn1-2 [Compound 258] | < 99
COCc1nnc2n1Cc1c(-c3nc(-c4ccccc4)co3)ncn1-c1ccc(Cl)cc1-2 [Compound 245] | < 99
FC(F)(F)COCc1nnc2n1Cc1c(C3=N[C@@H](c4ccccc4)CO3)ncn1-c1ccc(Cl)cc1-2 [Compound 304] | < 99
COCc1nnc2n1Cc1c(C3=N[C@H](c4ccccc4)CO3)ncn1-c1ccc(Cl)cc1-2 [Compound 263] | < 99
COCc1nnc2n1Cc1c(-c3nc(C)co3)ncn1-c1ccc(Cl)cc1-2 [Compound 244] | < 99
COc1ccc2c(c1)-n1nncc1Cc1c(C3=N[C@H](C)CO3)ncn1-2 [Compound 291] | < 99
CC(C)OCc1nnc2n1Cc1c(C3=N[C@@H](c4ccccc4)CO3)ncn1-c1ccc(Cl)cc1-2 [Compound 270] | < 99
C#Cc1ccc2c(c1)-c1nnc(COC)n1Cc1c(C3=N[C@@H](c4ccccc4)CO3)ncn1-2 [Compound 301] | < 99
CCOC(=O)c1ncn2c1Cc1c(Cc3ccccc3)nnn1-c1cc(C)ccc1-2 [Compound 101] | < 99
COCc1nnc2n1Cc1c(C#Cc3ccccc3)ncn1-c1ccc(Cl)cc1-2 [Compound 285] | < 99
CCOC(=O)c1ncn2c1Cc1c(Cc3ccccc3Cl)nnn1-c1cc(C)ccc1-2 [Compound 54] | < 99
N#Cc1ncn2c1Cc1c(COc3cccc(F)c3)nnn1-c1cc(Cl)ccc1-2 [Compound 227] | < 99
COCc1nnc2n1Cc1c(C3=N[C@H](C)CO3)ncn1-c1ccc(Cl)cc1-2 [Compound 282] | < 99
N#Cc1ncn2c1Cn1c(COc3ccccc3)nnc1-c1cc(Cl)ccc1-2 [Compound 197] | < 99
COCc1nnc2n1Cc1c(C3=NC[C@@H](C)O3)ncn1-c1ccc(Cl)cc1-2 [Compound 294] | < 99
CC(C)c1nc(-c2ncn3c2Cc2c(C(=O)c4ccc(F)cc4)nnn2-c2ccc(F)cc2-3)no1 [Compound 230] | < 99

Structure (SMILES) | Ki [nM]
C#Cc1ncn2c1Cn1c(COCC)nnc1-c1cc(Cl)ccc1-2 [Compound 261] | < 99
COc1ccc2c(c1)-c1nnc(COc3cccnc3)n1Cc1c(Br)ncn1-2 [Compound 235] | < 99
CC(C)OCc1nnc2n1Cc1c(-c3nc(-c4ccccc4)co3)ncn1-c1ccc(Cl)cc1-2 [Compound 276] | < 99
COc1ccc2c(c1)-n1nnc(C)c1Cc1c(-c3nc(C(C)C)no3)ncn1-2 [Compound 277] | < 99
COCc1nnc2n1Cc1c(Br)ncn1-c1ccc(Cl)cc1-2 [Compound 217] | < 99
COc1ccc2c(c1)-c1nnc(COc3ccccc3)n1Cc1c(Br)ncn1-2 [Compound 232] | < 99
CCOCc1nnc2n1Cc1c(C3=N[C@@H](c4ccccc4)CO3)ncn1-c1ccc(Cl)cc1-2 [Compound 275] | < 99
CCOCc1nnc2n1Cc1c(Br)ncn1-c1ccc(Cl)cc1-2 [Compound 216] | < 99
C#Cc1ncn2c1Cn1c(COc3cccnc3)nnc1-c1cc(OC)ccc1-2 [Compound 241] | < 99
Cc1cccc(C)c1OCc1nnc2n1Cc1c(-c3noc(C(C)C)n3)ncn1-c1ccc(F)cc1-2 [Compound 190] | < 99
C#Cc1ncn2c1Cn1c(COc3ccccc3)nnc1-c1cc(OC)ccc1-2 [Compound 236] | < 99
COc1ccc2c(c1)-n1nnc(Cc3ccccc3Cl)c1Cc1c(C#N)ncn1-2 [Compound 208] | < 99
C#Cc1ccc2c(c1)-c1nnc(COC)n1Cc1c(-c3nc(-c4ccccc4)co3)ncn1-2 [Compound 302] | < 99
COCc1nnc2n1Cc1c(C3=NC(c4ccccc4)CO3)ncn1-c1ccc(Cl)cc1-2 (stereo not drawn) [Compound 242] | < 99
CC(C)OCc1nnc2n1Cc1c(C3=N[C@H](c4ccccc4)CO3)ncn1-c1ccc(Cl)cc1-2 [Compound 268] | < 99
COCc1nnc2n1Cc1c(-c3nc(C(C)C)no3)ncn1-c1ccc(Cl)cc1-2 [Compound 206] | < 99
